Measured values published in ChEMBL document CHEMBL1156829 (Proc Natl Acad Sci U S A, 2008).

Assays:
[1] = NOVARTIS: Cytotoxicity against human hepatocellular carcinoma cell line (Huh7); format: toxicity, cell-based, Huh-7; details: Huh7 cells (hepatocellular carcinoma cell line)
Plasmodium falciparum [2] = test: NOVARTIS: Inhibition of Plasmodium falciparum W2 (drug-resistant) proliferation in erythrocyte-based infection assay; format: functional, organism-based; details: Plasmodium falciparum, W2; read-out: EC50
Plasmodium falciparum [3] = test: NOVARTIS: Inhibition of Plasmodium falciparum 3D7 (drug-susceptible) proliferation in erythrocyte-based infection assay; format: functional, organism-based; details: Plasmodium falciparum, 3D7

Structure (SMILES)	CC50 [1] [µM]	EC50 (Plasmodium falciparum [2]) [nM]	EC50 (Plasmodium falciparum [3]) [nM]
COc1ccc2c(c1)-c1c(ssc1=S)C(C)(C)N2C(=O)c1ccccc1F	> 100	118	652
O=C(CCl)Nc1ccc(N2CCCCCC2)cc1	19.7	1330	1260
COc1ccc2c(c1)c1c3n2CCN(Cc2ccccc2)C3=[N+](C)CC1	> 10	1340	442
CC(C)[C@@H](CO)Nc1ccnc2c(-c3ccccc3F)cnn12	> 10	> 272	> 1250
CC(C)(C)CC(C)(C)Nc1c(-c2ccccc2OC(=O)/C=C/c2ccccc2)nc2ccccn12	> 10	34	457
CCN(C(=O)Cn1c(=O)oc2ccccc21)c1ccc(F)cc1	> 10	2310	> 1530
O=C(NCCCNC(=O)Nc1cccc(C2=NCCN2)c1)Nc1cccc(C2=NCCN2)c1	> 10	256	326
COC(=O)c1ccc(C(=O)Nc2ccc(-c3nc4cc(NC(=O)c5ccc(C(=O)OC)cc5)ccc4[nH]3)cc2)cc1	> 10	1090	855
O=C(Nc1ccc(-c2noc(CCc3ccccc3)n2)cc1)c1cccs1	15.7	554	903
COc1ccc2c(Cl)c(C(=O)Nc3cc(C)on3)sc2c1Cl	> 100	316	430
CCOc1ccc(C2C(=O)N(C3CCCCC3)CC(=O)N2Cc2ccc(F)cc2)cc1OC (stereo not given)	> 100	4150	4560
c1ccc(-c2cc(N3CCOCC3)nc(-c3ccccn3)n2)nc1	> 10	372	907
COc1ccc(C2=C(c3ccc(OC)cc3)C3(c4ccccc4)C(=O)C2(c2ccccc2)C2C(=O)N(c4cc(Cl)ccc4C)C(=O)C23)cc1 (stereo not given)	> 100	346	447
O=C(CSc1nc2ccccc2c(=O)n1-c1ccc(C(=O)N2CCOCC2)cc1)c1ccccc1	> 10	> 1250	> 772
O=C1c2ccccc2-n2c1nc1ccccc1c2=O [TRYPTANTHRIN]	> 10	276	212
CCCCOc1ccc(NC2=C(N3CCCCC3)C(=O)c3ccccc3C2=O)cc1	15.5	17.2	9.86
CN(CCCNc1ccnc2cc(Cl)ccc12)C(=O)C1C[C@H]1c1ccccc1 (stereo not given in full)	> 11.6	411	76.1
CCOC(=O)c1nnn(-c2nonc2N)c1-c1ccc(Cl)cc1	> 100	160	397
COc1cc(OC)c(OC)cc1CN1CCN(C(C)C)CC1	> 10	> 1480	> 1010
CC(=O)Nc1ccc2nc(C)sc2c1	> 10	> 445	> 1250
COc1ccccc1/C=C/CN1CCN(c2ccccn2)CC1	> 10	> 1150	> 1630
Cc1oc(-c2cccs2)nc1CN1CCC(CO)(CCOc2ccccc2)CC1	> 100	2350	8470
COCCn1c(SCC(=O)c2ccc(C)cc2C)nnc1-c1ccco1	> 10	295	> 868
Cc1ccc(C)c(-c2csc(Nc3ccc(C)c(C)c3)n2)c1	> 100	116	493

Structure (SMILES)	CC50 [1] [µM]	EC50 (Plasmodium falciparum [2]) [nM]	EC50 (Plasmodium falciparum [3]) [nM]
CCCN1CCc2c(sc3nc(SCC(=O)OC)nc(N)c23)C1	> 100	710	1660
NCCNC(=O)COC(c1cccnc1)c1ccccc1Cl (stereo not given)	> 10	> 1150	> 1250
c1ccc(C2=NN(c3ccccc3)C(c3ccc4c(c3)OCO4)N2c2ccc(N3CCOCC3)cc2)cc1 (stereo not given)	> 10	1780	680
NNc1nc(NCc2ccccc2)nc(N2CCOCC2)n1	> 10	89.4	71.8
O=C(Cc1ccsc1)NC1CCN(CC(O)CN(Cc2ccccc2)S(=O)(=O)c2ccccc2)C1 (stereo not given)	> 10	188	411
CC(=O)N(C1=C(N(C)C)C(=O)c2ccccc2C1=O)c1ccc(F)c(F)c1	2.36	41.1	16.1
N#Cc1c(-c2ccccc2)cc(N2CCN(Cc3ccc(Cl)cc3)CC2)n2c1nc1ccccc12	> 100	1710	1120
CCN(c1ccc(OC)cc1)S(=O)(=O)c1ccc(C)cc1	> 100	1370	> 12500
CC1=C2C(=O)c3ccccc3C2NC(=O)N1 (stereo not given)	> 100	> 12500	> 352
COc1ccccc1CN1CCC(S(=O)(=O)c2ccccc2)CC1	1.08	52.3	349
CN(C)CCNC(=O)c1cc2c(-c3ccc(Cl)cc3)nn(C)c2s1	64.6	422	339
COc1ccc(N2C(N)=NC(N)=NC23CCCC3)cc1	> 100	6350	393
CCOC(=O)C1=C(C)N(c2ccc(N(C)C)cc2)C(C)=C(C(=O)OCC)C1c1ccc(Br)cc1	19.6	896	> 1130
Cc1ccccc1Cc1c(C)nc2c(C#N)c(C)nn2c1C	> 100	273	282
COCC(=O)NC(c1ccccc1)c1cc(Cl)c2cccnc2c1O (stereo not given)	> 10	950	1050
COc1cccc(-c2ccc(O)c(CN(C)CC(O)c3ccccc3)c2)n1 (stereo not given)	> 10	90.4	246
O=C(NCc1ccccc1)c1cnc(NCCCn2ccnc2)nc1NCC1CCCCC1	> 10	1040	311
COc1cc(OC)cc(N2CCN(CCNCCOc3ccccc3)[C@@H](c3ccccc3)C2)c1	> 10	> 635	> 1250
COc1cc2nc(CN(C)C(C)c3cccs3)nc(N3CCCC3)c2cc1OC (stereo not given)	26.4	1990	> 12500
COc1ccc(-n2nc(C(=O)NCc3ccccc3OC)c3ccccc3c2=O)cc1	> 100	390	377
CCCCN1C(=O)/C(=C2/Sc3ccccc3N2C)SC1=Nc1cc(C)ccc1C	> 10	> 175	> 581
COc1ccccc1C(NC(=O)c1cc(OC)c(OC)c(OC)c1)c1cc(Cl)c2cccnc2c1O (stereo not given)	> 100	1230	2200
CCNC1=C(C(=O)c2ccccc2)N(CC(=O)c2ccc(Br)cc2)S(=O)(=O)c2ccccc21	> 10	966	> 1250
NC(=NOC(=O)c1ccccc1I)c1ccccn1	63	831	6030

Structure (SMILES)	CC50 [1] [µM]	EC50 (Plasmodium falciparum [2]) [nM]	EC50 (Plasmodium falciparum [3]) [nM]
COc1cccc(CNc2ncnc3sc(C(=O)NCC4COCCO4)c(C)c23)c1OC (stereo not given)	> 100	3500	> 12500
CCN(CC)c1ccc(N=Cc2ccc(Sc3nc4ccccc4s3)o2)cc1	10.8	98.8	271
O=S(=O)(Nc1cc(Sc2nc[nH]n2)c(O)c2ccccc12)c1ccc(F)cc1	20.5	323	1600
CCOc1ccc(Nc2cc(C)nc3ccc(OCC)cc23)cc1	> 10	20.3	> 1250
COc1cc(C(=O)NC(c2cccs2)c2cc(Cl)c3cccnc3c2O)cc(OC)c1OC (stereo not given)	> 100	1230	1490
COc1ccc(-c2ccc(C(=O)N(C)Cc3cscn3)c(N3CCC(N4CCc5ccccc5C4)CC3)n2)cc1	> 10	1750	> 1250
CCN(CC)CCNc1nc(C=Cc2ccc(Cl)cc2)nc2cc3ccccc3cc12	22.5	193	128
CCOC(=O)C1=C(C)NC2=C(C(=O)CC(c3ccc(OC)cc3)C2)C1c1ccsc1 (stereo not given)	> 100	62	302
Cc1ccc(NC(=O)c2c(I)cnn2C)cc1[N+](=O)[O-]	> 100	280	192
CS(=O)(=O)Nc1cccc(-c2cnc(N)c(-c3ccc(C(=O)N4CCOCC4)cc3)n2)c1	> 10	> 1250	> 976
CSC1=C(C#N)C(c2ccc(O)cc2)CC(=O)N1 (stereo not given)	> 100	3280	> 9510
CCCCN(CCCC)S(=O)(=O)c1ccc(NC(=O)c2ccco2)cc1	> 65.7	637	1420
COc1cc(/C=C(\C#N)c2nc3ccccc3[nH]2)ccc1OCc1ccccc1F	> 10	919	> 1190
C/C(Cl)=C/Cc1c(C)nc2c(ccc3ccccc32)c1O	> 10	1280	857
CC1=C(C(=O)OC2CCCCC2)C(c2cccc([N+](=O)[O-])c2)C2=C(CCCC2=O)N1 (stereo not given)	68.4	1330	1640
CC(C)Cc1ccc(/C=C/C(=O)NC2CC2)cc1	> 10	> 1200	913
CC(OC(=O)c1ccccc1N1C(=O)C2C3C=CC(C4CC34)C2C1=O)C(=O)c1ccccc1 (stereo not given)	> 100	1570	961
COc1cccc(C2C(C(=O)Nc3ccc(C)cc3C)=C(C)Nc3c(C(=O)Nc4ccccc4)cnn32)c1 (stereo not given)	> 100	190	590
COc1ccc(/C=C2\SC(=Nc3ccc(F)cc3)NC2=O)c(OC)c1	> 10	543	270
N=c1n(Cc2ccccc2)c2ccccc2n1CC(O)c1ccc(Cl)cc1 (stereo not given)	11.1	50.6	257
Oc1ccc(-c2ccnc3cc(Cl)ccc23)cc1CNC1CCCCC1	5.94	15.2	119
N#CC(=Cn1cc(Cc2ccc(Cl)cc2Cl)c2ccccc21)c1nn(CCO)c(N)c1C#N	75	909	629
